# Patent US20220033407A1, “N-(pyridin-2-ylsulfonyl)cyclopropanecarboxamide Derivatives and their Use in the Treatment of Disease” (NOVARTIS AG, priority 2018, published 2022)
# Legend:
# delF508-CFTR-HRP = target: T1, delF508-CFTR-HRP (Homo sapiens, UniProt P13569, DEL508-508); experiment: Measurement of delF508-CFTR-HRP surface expression in CFBE41o- cells (HRP luminescence); type: cell-based; conditions: for Emax: CFBE41o-, read-out: DelF508-CFTR-HRP Amax %; for EC50: mean of at least two replicates;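 as to DelF508-CFTR-HRP Amax %: percent efficacy relative to a reference CFTR corrector compound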
# T1 construct: expressed in transfected cells
# T1 sequence (P13569 with tags, fused parts or gaps DEL508-508): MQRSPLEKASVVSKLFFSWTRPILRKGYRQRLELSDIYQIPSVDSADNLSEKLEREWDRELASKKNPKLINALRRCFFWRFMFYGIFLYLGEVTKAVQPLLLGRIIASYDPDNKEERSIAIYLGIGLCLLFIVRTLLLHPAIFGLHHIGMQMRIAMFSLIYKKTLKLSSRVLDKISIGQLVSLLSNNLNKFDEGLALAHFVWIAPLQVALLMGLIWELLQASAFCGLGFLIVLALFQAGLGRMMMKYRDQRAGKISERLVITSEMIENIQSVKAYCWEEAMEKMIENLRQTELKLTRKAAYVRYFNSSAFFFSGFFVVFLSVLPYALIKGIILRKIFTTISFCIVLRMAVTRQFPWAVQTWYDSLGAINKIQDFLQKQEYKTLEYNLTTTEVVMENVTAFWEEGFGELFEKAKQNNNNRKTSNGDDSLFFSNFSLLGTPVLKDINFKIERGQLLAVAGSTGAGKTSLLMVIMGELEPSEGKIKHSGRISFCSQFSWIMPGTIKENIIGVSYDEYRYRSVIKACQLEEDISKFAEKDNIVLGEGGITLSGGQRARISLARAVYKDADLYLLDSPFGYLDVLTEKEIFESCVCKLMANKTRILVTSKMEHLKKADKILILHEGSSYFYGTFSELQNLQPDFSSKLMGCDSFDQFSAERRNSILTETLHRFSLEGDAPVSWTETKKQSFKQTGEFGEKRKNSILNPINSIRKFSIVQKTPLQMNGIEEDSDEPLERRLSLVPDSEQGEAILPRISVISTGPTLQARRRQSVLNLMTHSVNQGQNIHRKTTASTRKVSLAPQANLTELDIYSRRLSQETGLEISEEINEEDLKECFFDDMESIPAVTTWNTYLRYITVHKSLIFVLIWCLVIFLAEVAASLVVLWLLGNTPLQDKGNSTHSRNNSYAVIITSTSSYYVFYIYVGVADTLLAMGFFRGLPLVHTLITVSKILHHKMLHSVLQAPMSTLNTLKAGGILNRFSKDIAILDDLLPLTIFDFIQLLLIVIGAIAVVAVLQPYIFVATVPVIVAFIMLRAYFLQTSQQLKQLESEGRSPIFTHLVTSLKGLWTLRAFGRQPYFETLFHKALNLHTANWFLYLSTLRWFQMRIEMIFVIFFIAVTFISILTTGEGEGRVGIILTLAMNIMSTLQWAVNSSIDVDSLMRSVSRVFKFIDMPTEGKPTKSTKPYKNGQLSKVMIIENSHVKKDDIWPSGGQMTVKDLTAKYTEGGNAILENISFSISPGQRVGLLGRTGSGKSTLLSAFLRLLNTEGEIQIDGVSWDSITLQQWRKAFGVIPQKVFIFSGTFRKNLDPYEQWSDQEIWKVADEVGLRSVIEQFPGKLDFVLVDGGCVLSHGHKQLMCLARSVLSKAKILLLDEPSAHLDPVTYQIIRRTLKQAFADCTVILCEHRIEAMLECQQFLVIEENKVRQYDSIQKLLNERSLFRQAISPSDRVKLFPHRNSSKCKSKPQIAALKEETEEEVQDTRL
# Summary of the method: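 EC50 derived by logistic regression of triplicate surface-HRP luminescence, plate-normalized to the lowest-concentration median. Doxycycline (500 ng/mL, 48 h) induced delF508-CFTR-HRP in CFBE41o- cells; compounds then applied 24 h at 37° C, 10 μM top, 3-fold over 10 points.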
# delF508-CFTR = target: T2, delF508-CFTR (Homo sapiens, UniProt P13569, DEL508-508); experiment: delF508-CFTR functional activity in primary human bronchial epithelial cells (HBECs), Multi-Transepithelial Clamp Circuit (MTECC-24) assay, equivalent short circuit current; type: cell-based; conditions: primary CF HBECs; for MTECC24 CFHBEC-Amax %: relative to reference combination 2 μM 3-(6-(1-(2,2-difluorobenzo[d][1,3]dioxol-5-yl)cyclopropane-1-carboxamido)-3-methylpyridin-2-yl)benzoic acid (24 h) + 0.5 μM N-(2,4-di-tert-butyl-5-hydroxyphenyl)-4-oxo-1,4-dihydroquinoline-3-carboxamide; for EC50: test compound added 24 h before assay, potentiator (S)-3-amino-6-methoxy-N-(3,3,3-trifluoro-2-hydroxy-2-methylpropyl)-5-(trifluoromethyl)picolinamide present at assay, mean of at least two replicates, read-out: MTECC24 CFHBEC-EC50
# T2 construct: functional activity of the CFTR channel (Chloride ion transport) in patient derived primary human bronchial epithelial cells; host or cells: patient-derived primary human bronchial epithelial cells (HBECs), delF508-CFTR
# T2 sequence (P13569 with tags, fused parts or gaps DEL508-508): as above
# Summary of the method: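 Compound acted as corrector on differentiated primary delF508-CFTR bronchial cultures, first 24 h basolaterally, then 45 min both sides before reading. Equivalent short circuit current was recorded during sequential forskolin and potentiator addition. EC50 came from 10-point, 1-in-3 dilution curves against the 0.1% DMSO baseline.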
Structure (SMILES),Emax (delF508-CFTR-HRP) [%],EC50 (delF508-CFTR-HRP) [nM],MTECC24 CFHBEC-Amax % (delF508-CFTR) [%],EC50 (delF508-CFTR) [nM]
C[C@@H](CO)Nc1cccc(S(=O)(=O)NC(=O)C2(Oc3cc(F)ccc3C3CCC(F)(F)CC3)CC2)n1 [Example 3-2],172,4420,48,371
"Cc1ccc(C2CCCCC2)c(OC2(C(=O)NS(=O)(=O)c3cccc(N4CCOC[C@@H]4C)n3)CC2)c1 [Example 2-2, (S)-1-(2-Cyclohexyl-5-methylphenoxy)-N-((6-(3-methylmorpholino)pyridin-2-yl)sulfonyl)cyclopropanecarboxamide]",561,1330,59,2
"Cc1ccc([C@H]2CC[C@H](F)CC2)c(OC2(C(=O)NS(=O)(=O)c3cccc(N4CC(C)(O)C4)n3)CC2)c1 (single isomer, unassigned) [Example 4-1, 1-(2-(Trans-4-fluorocyclohexyl)-5-methylphenoxy)-N-((6-(3-hydroxy-3-methylazetidin-1-yl)pyridin-2-yl)sulfonyl)cyclopropane-1-carboxamide]",297,4030,84,226

# Stronger by EC50 (delF508-CFTR-HRP), values ahead:
Emax (delF508-CFTR-HRP) [%],EC50 (delF508-CFTR-HRP) [nM],MTECC24 CFHBEC-Amax % (delF508-CFTR) [%],EC50 (delF508-CFTR) [nM],Structure (SMILES)
472,580,131.1,123,"C[C@]1(O)CCN(c2cccc(S(=O)(=O)NC(=O)C3(Oc4cc(Cl)ccc4N4CC5(CCCCC5)C4)CC3)n2)C1 [Example 9-7, (S)-1-(5-Chloro-2-(2-azaspiro[3.5]nonan-2-yl)phenoxy)-N-((6-(3-hydroxy-3-methylpyrrolidin-1-yl)pyridin-2-yl)sulfonyl)cyclopropanecarboxamide]"
626,870,76,63,"Cc1ccc(C2CCCCC2)c(OC2(C(=O)NS(=O)(=O)c3cccc(N4CC5(CN(C(=O)OC(C)(C)C)C5)C4)n3)CC2)c1 [Example 2-29, Tert-butyl 6-(6-(N-(1-(2-cyclohexyl-5-methylphenoxy)cyclopropanecarbonyl)sulfamoyl)pyridin-2-yl)-2,6-diazaspiro[3.3]heptane-2-carboxylate]"
